The first data set deals with local draining lymph nodes (lymphocyte proliferation).
Experiment: not given
To be noted: known LLNA data; estimated concentration required to produce a stimulation index of 3; cited from earlier work.
For `CC=Cc1ccc(O)c(OC)c1` [Isoeugenol], the “LLNA E3C” value is 110.

`CCCOC(=O)c1cc(O)c(O)c(O)c1` [Propyl Gallate]: the “LLNA E3C” value is reported as 15.09.

Consider `O=C(Oc1ccccc1)c1ccccc1` [Phenyl Benzoate], for which the “LLNA E3C” value is recorded as 863.

Consider `O=C1OC(=O)c2ccccc21` [Phthalic Anhydride], for which the “LLNA E3C” value is listed as 10.8.

A further data set has as its system AKR. The experiment in a line: AKR (aldo-keto reductase) marker gene expression in cultured mammalian cells. Further details: key: The ++ signs indicate positive response and the number represents the magnitude of response; The ++ signs indicate positive response and the number represents the magnitude of response; −−−: The dashed lines indicate no measurable response; −−−−: The dashed lines indicate no measurable response; −−−−−: The dashed lines indicate no measurable response. The class given is cell-based. To be noted: gene marker response, preliminary data. From the text:
(§1) Specifically, chemicals would be placed in an appropriate vehicle such as DMSO and applied to appropriate mammalian cells, such as human keratinocytes (HaCat cells), 3D human skin cells, normal human epithelial cells (NHEK cells), MCF7 cells, H4IIE cells (ATCC Accession #CRL-1548), or combination cultures including keratinocyte and dendritic cells. Following exposure times of 6, 24, and 72 hr the expression levels of several genes that are associated with an increase risk for sensitization type reactions. The expression of key gene markers associated with sensitization that include but are not limited to quinone reductase, IL-8, CD-86, aldo-keto reductase, thioredoxin, and thioredoxin reductase is measured by RT-PCR.
(§2) In specific embodiments, the expression of gene markers is measured. Appropriate gene markers for the methods of the invention include but are not limited to quinone reductase, IL-8, CD-86, aldo-keto reductase, thioredoxin, and thioredoxin reductase. Expression levels may be measured by any appropriate method of measuring gene expression, including but not limited to polymerase chain reaction (PCR), reverse transcriptase PCR (RT-PCR), fluorescent in situ hybridization (FISH), branched DNA (bDNA) assay, differential display, RNA interference, reporter genes, microarrays, and proteomics. For instance, expression levels may be measured by RT-PCR in at least triplicates. The standard protocols for performing RT-PCR may be obtained from Invitrogen, (Carlsbad, Calif.). Standard methods and protocols for measuring gene expression are described in the literature and in treatises such as Sambrook et al., “Molecular Cloning: A Laboratory Manual” and Avison, Matthew, “Measuring Gene Expression,” Taylor and Francis (2006). These protocols are incorporated herein by reference in their entirety.
(§3) As shown in Table 2 (below), preliminary data were collected and used to build the algorithm for predicting the sensitization. NQO1 is quinone reductase; IL-8 is interleukin-8; and AKR is aldo-keto reductase.
(§4) The compounds listed in Table 2 are known skin sensitizers with different magnitudes of effect. In this example, three gene markers are measured to develop a relationship between the magnitude of response, the number of genes responding above about 15%, and the minimum exposure concentration where expression occurred. The ++ signs indicate positive response and the number represents the magnitude of response. The dashed lines indicate no measurable response.
`O=C(C=Cc1ccccc1)OCc1ccccc1` [Benzyl Cinnamate]: the AKR result is reported as “++”.

In the case of `COc1cc(C=O)ccc1O` [Vanillin], the AKR entry is reported as “−−−−”.

As to `O=C(O)c1ccccc1` [Benzoic Acid], the AKR result is “−−−−−”.

As for `CC=Cc1ccc(O)c(OC)c1` [Isoeugenol], the AKR result was “++”.

Turning to `CCCOC(=O)c1cc(O)c(O)c(O)c1` [Propyl Gallate], the AKR result was “++”.

As to `O=C(Oc1ccccc1)c1ccccc1` [Phenyl Benzoate], the AKR entry is “−−−−”.

Regarding `O=C1OC(=O)c2ccccc21` [Phthalic Anhydride], the AKR result is reported as “++”.

The subject of the next data set is skin.
Experiment: not given
The note with it: in vivo; cited from earlier work.
Regarding `CCCOC(=O)c1cc(O)c(O)c(O)c1` [Propyl Gallate], the “Sensitizer Class” value is “Strong”.

The data set is the same for the next values; noted with them: known skin sensitizers with different magnitudes of effect; cited from earlier work.
For the compound `COc1cc(C=O)ccc1O` [Vanillin], the “Sensitizer Class” value was “Very Weak”.

On to `O=C(O)c1ccccc1` [Benzoic Acid], for which the “Sensitizer Class” value is reported as “Non-”.

In the case of `CC=Cc1ccc(O)c(OC)c1` [Isoeugenol], the “Sensitizer Class” value is recorded as “Moderate”.

Regarding `O=C(Oc1ccccc1)c1ccccc1` [Phenyl Benzoate], the “Sensitizer Class” value is “Weak”.

In the case of `O=C1OC(=O)c2ccccc21` [Phthalic Anhydride], the “Sensitizer Class” value was “Strong”.

The test system of a further data set is IL-8. As to the kind of experiment: IL-8 (interleukin-8) marker gene expression in cultured mammalian cells. Type of data set: cell-based. The arrangement: key: The ++ signs indicate positive response and the number represents the magnitude of response; The ++ signs indicate positive response and the number represents the magnitude of response; −−−: The dashed lines indicate no measurable response; −−−−: The dashed lines indicate no measurable response; −−−−−: The dashed lines indicate no measurable response. To be noted: gene marker response, preliminary data.
Description: as §1, §2, §3, §4
Regarding `O=C(C=Cc1ccccc1)OCc1ccccc1` [Benzyl Cinnamate], the IL-8 result is given as “−−−”.

In the case of `COc1cc(C=O)ccc1O` [Vanillin], the IL-8 entry is listed as “−−−−”.

Consider `O=C(O)c1ccccc1` [Benzoic Acid], for which the IL-8 result is on record as “−−−−−”.

On to `CC=Cc1ccc(O)c(OC)c1` [Isoeugenol], for which the IL-8 result is “+”.

As to `CCCOC(=O)c1cc(O)c(O)c(O)c1` [Propyl Gallate], the IL-8 entry was “++”.

Consider `O=C(Oc1ccccc1)c1ccccc1` [Phenyl Benzoate], for which the IL-8 entry is “+”.

Take `O=C1OC(=O)c2ccccc21` [Phthalic Anhydride]: the IL-8 result is recorded as “+”.

The subject of the next data set is NQO1. As to the kind of experiment: NQO1 (quinone reductase) marker gene expression in cultured mammalian cells. Type of data set: cell-based. To be noted: gene marker response, preliminary data. The arrangement: key: The ++ signs indicate positive response and the number represents the magnitude of response; The ++ signs indicate positive response and the number represents the magnitude of response; −−−: The dashed lines indicate no measurable response; −−−−: The dashed lines indicate no measurable response; −−−−−: The dashed lines indicate no measurable response.
Description: as §1, §2, §3, §4
Take `O=C(C=Cc1ccccc1)OCc1ccccc1` [Benzyl Cinnamate]: the NQO1 result was “++”.

`COc1cc(C=O)ccc1O` [Vanillin]: the NQO1 entry is “+”.

On to `O=C(O)c1ccccc1` [Benzoic Acid], for which the NQO1 result was “−−−−”.

Consider `CC=Cc1ccc(O)c(OC)c1` [Isoeugenol], for which the NQO1 result is on record as “+”.

On to `CCCOC(=O)c1cc(O)c(O)c(O)c1` [Propyl Gallate], for which the NQO1 entry is given as “++”.

For `O=C(Oc1ccccc1)c1ccccc1` [Phenyl Benzoate], the NQO1 entry is reported as “+”.

As to `O=C1OC(=O)c2ccccc21` [Phthalic Anhydride], the NQO1 result is “++”.

These data come from US20090305276A1, “Method for Predicting Skin Sensitizing Activity of Compounds” (priority 2008, published 2009).
